Legend:
PFI = assay type: physicochemical
Protocol: Dose response assays were performed in duplicate on WT PfPKG, HuPKGIα and a mock assay performed in the absence of enzyme (the counterscreen). Comparison of the PfPKG and HuPKGIα IC50 values gave information on selectivity and the counterscreen identified luminescent false positive compounds (see Materials and Methods). Cytotoxicity assays were also performed using a human hepatoma cell line (HepG2)[30]. […] This set of compounds was clustered by similarity using a complete-linkage algorithm and a threshold of 0.55[31]. A total of 79 clusters and 54 singletons were obtained.

PI3KD = PI3KD (Homo sapiens, UniProt O00329); assay: Preliminary safety test on human PI3KD kinase; assay type: biochemical
AuroraB = AuroraB (Homo sapiens, UniProt Q96GD4); assay: Preliminary safety test on human AuroraB kinase; assay type: biochemical
Protocol: We explored the binding mode by also testing compounds on the gatekeeper mutant enzyme TQ PfPKG. […] A preliminary safety test was performed on human AuroraB and LCK kinases which often underpin toxicity issues. […] Further assays for compound characterization included determination of solubility and cytotoxicity (HepG2 inhibition).

HuPKGIα = target: T1, HuPKGIα (Homo sapiens, UniProt Q13976); assay: Kinase Glo enzymatic assay, human PKG; assay type: biochemical; conditions: human PKGIα; read-out: Hu PKGIα
T1 construct: His6; host or cells: Spodoptera frugiperda 21 cells (baculovirus)
T1 sequence (Q13976 1-671): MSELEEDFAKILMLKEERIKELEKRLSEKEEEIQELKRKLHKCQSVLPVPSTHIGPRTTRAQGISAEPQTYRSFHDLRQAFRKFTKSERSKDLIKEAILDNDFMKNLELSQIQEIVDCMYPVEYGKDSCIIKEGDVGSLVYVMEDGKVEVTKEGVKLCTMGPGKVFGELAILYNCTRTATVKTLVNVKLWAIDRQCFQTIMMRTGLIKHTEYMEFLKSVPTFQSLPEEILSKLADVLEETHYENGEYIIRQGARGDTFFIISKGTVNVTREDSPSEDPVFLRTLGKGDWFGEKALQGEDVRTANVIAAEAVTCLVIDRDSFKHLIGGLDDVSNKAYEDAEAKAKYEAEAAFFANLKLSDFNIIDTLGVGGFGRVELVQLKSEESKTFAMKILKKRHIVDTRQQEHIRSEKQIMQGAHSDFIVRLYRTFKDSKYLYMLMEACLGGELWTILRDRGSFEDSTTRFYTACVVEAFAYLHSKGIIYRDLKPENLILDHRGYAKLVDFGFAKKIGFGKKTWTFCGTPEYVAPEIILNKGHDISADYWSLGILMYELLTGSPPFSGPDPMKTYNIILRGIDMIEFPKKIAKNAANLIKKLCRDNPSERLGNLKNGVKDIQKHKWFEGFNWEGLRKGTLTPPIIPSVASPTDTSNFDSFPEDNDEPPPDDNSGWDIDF
Protocol: To identify new PKG inhibitor scaffolds, the 1.7 million GlaxoSmithKline Full Diversity collection was tested at a single final concentration of 10 μM against recombinant full length wild type (WT) PfPKG using a Kinase Glo-based assay (Promega). […] Fresh samples of these primary hits were tested in duplicate against WT PfPKG and also against human PKGIα (HuPKGIα) (Supplementary Fig. 1) at a final concentration of 10 μM (confirmation step).
The expression vector encoding His6-cGK1α (HuPKGIα) was used to generate recombinant baculoviruses using the Bac-to-Bac system (Invitrogen) following the manufacturer’s protocol. These baculoviruses were used to infect Spodoptera frugiperda 21 cells (1.5 × 10^6/ml) at a multiplicity of infection of 5 and the infected cells were harvested 48 hours post-infection. His6-cGK1α was purified on Cobalt agarose and dialysed into 50 mM Tris-HCl pH 7.5, 0.1 mM EGTA, 150 mM NaCl, 270 mM sucrose, 0.03% Brij-35, 0.1% 2-mercaptoethanol, 1 mM benzamidine, 0.1 mM phenylmethylsulfonyl fluoride (PMSF).
Initial optimization of the PKG assay was performed manually in 384-well plates and analysed with GraFit 7. The buffer for all assays was 25 mM HEPES pH 7.3 (GIBCO), 10 mM MgCl2 (Sigma), 2 mM DTT (Sigma), 0.01 mM cGMP (Sigma), 0.1 mg/ml BSA (Ambion). Enzymatic activity was tested using a luminescence-based kit (Promega KinaseGlo). Addition of the first reagent depletes the unused ATP and addition of the second reagent converts ADP (product of the kinase reaction) to ATP, which is then measured through a luciferin/luciferase reaction. The amount of luminescence is directly proportional to ATP turnover by the kinase. The kit was chosen because it can be miniaturized to small volumes (i.e. 4 µl) in 1536-well plates, for use in HTS.
We used PKA peptide substrate (SCP0212, Sigma-Aldrich) for WT and TQ PfPKG, dissolved in milliQ water at a final concentration of 5 mM, and Long S6 peptide substrate (produced at the University of Dundee, sequence […]) for HuPKGIα, dissolved in water at a final concentration of 30 mM.
We calculated the Michaelis-Menten (Km) constant for ATP and peptide substrate (PKA or Long S6) for all enzymes using GraphPad Prism (Supplementary Figs 2 and 3 and Supplementary Table 3). In order to identify different types of PKG inhibitors, including ATP competitive or non-competitive inhibitors, as well as inhibitors that bind to the peptide substrate pocket, we performed all assays using ATP and peptide substrate at a concentration equal to the Km. We also determined enzyme activity by calculating ATP turnover (Kcat) over the Km (Supplementary Table 3). The Kcat was calculated as (Vmax*slope)/[E] where Vmax is the maximum velocity and [E] is the concentration of the enzyme.
The plates containing the compounds were prepared at GSK in Upper Providence or Stevenage. Compounds were tested at a single final concentration of 10 µM or in a dose response with a range of concentrations starting from 100 μM to 1.6 nM (1 in 3 serial dilutions). Compounds were dispensed in the plates at the required concentration in a 40 nl volume. All plates (1536-well white Greiner) contained 40 nl of DMSO in lanes 11 and 12 (control 1, 100% enzyme activity) and were empty in lanes 35 and 36 (control 2, 0% enzyme activity). The plates were removed from −20 °C 1 hour before starting the assay. Using a Multidrop Combi dispenser (Thermo Scientific), 2 µl of the buffer containing ATP and the substrate were added to all wells then 2 µl of buffer only were added to column 35 and 36. Finally 2 µl of buffer containing the enzyme were dispensed in all the plate wells except for lanes 35 and 36. After 1 hour incubation at 21 °C 2 µl of ADP-Glo reagent (Promega KinaseGlo kit), previously supplemented with 0.02% CHAPS (Sigma), were added to all wells.

[1] = ChromlogD (lipophilicity)

Chain of PI3KD (O00329 whole entry): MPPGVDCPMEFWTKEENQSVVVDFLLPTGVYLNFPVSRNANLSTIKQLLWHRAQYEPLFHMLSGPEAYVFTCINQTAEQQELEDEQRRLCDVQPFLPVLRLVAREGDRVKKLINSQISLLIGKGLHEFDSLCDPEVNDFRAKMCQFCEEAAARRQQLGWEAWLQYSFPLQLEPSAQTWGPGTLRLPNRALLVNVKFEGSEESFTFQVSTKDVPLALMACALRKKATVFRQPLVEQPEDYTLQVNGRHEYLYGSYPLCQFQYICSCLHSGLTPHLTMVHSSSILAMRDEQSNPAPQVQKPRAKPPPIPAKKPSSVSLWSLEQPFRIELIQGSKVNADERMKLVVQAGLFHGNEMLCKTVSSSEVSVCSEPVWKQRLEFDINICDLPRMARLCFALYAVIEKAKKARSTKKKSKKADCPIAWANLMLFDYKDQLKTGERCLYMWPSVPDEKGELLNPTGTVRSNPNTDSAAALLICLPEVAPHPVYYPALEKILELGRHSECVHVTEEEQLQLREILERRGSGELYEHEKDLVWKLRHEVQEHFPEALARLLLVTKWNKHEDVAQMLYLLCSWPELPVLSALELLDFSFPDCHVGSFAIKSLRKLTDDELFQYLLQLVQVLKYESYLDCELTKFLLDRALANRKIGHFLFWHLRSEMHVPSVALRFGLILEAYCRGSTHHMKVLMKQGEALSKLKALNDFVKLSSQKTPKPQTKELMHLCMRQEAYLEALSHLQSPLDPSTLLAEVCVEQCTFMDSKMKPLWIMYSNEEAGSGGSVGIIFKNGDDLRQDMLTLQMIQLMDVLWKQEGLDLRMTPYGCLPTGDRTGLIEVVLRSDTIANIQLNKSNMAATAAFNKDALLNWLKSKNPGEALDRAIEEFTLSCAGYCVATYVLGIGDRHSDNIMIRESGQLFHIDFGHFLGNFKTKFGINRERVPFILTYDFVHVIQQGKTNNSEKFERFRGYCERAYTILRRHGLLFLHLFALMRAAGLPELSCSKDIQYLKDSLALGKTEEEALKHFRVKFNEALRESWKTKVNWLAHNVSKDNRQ
Chain of PI3KD (P27986 whole entry partner): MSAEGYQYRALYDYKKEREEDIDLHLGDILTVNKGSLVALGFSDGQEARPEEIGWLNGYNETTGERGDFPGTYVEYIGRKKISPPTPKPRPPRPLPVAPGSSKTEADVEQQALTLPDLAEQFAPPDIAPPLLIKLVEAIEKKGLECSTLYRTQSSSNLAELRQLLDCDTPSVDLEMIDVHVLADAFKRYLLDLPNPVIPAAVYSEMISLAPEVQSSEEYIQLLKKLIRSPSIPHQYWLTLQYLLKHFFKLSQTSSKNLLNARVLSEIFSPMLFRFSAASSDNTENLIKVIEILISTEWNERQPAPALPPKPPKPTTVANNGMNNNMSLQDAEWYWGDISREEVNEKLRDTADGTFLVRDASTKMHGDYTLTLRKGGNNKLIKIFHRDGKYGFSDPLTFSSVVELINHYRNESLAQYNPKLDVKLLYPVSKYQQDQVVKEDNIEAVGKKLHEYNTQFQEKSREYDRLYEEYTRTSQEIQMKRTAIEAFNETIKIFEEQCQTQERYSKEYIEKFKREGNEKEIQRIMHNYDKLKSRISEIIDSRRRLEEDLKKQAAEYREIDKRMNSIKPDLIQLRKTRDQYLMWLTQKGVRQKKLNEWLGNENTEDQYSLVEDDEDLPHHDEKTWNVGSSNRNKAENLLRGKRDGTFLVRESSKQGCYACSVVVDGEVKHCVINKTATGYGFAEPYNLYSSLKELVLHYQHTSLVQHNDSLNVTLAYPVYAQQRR
Chain of AuroraB (Q96GD4 whole entry): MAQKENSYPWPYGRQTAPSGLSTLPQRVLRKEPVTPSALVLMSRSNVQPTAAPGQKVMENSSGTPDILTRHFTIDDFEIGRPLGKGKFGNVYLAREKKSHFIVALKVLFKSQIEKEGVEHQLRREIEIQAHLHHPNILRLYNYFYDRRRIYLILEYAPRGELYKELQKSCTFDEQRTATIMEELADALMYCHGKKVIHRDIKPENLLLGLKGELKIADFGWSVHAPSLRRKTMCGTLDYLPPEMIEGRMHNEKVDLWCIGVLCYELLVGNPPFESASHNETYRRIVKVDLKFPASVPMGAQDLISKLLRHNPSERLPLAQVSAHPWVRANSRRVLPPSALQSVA

| SMILES | PFI (PFI) | IC50 (PI3KD) | IC50 (AuroraB) | IC50 (HuPKGIα) | chromatographic logD [1] |
| --- | --- | --- | --- | --- | --- |
| CNCCOc1cnc(-c2ccoc2C)c(-c2ccc3cnccc3c2)c1 [Compound 13] | 6.1 | > 50.1 µM | > 31.6 µM | 7.4 µM | 2.1 |
| Cc1ccc(S(C)(=O)=O)cc1Nc1nccc(-c2sc(CC(N)=O)nc2-c2ccccc2)n1 [Compound 3] | 7.3 | 0.0794 µM | > 31.6 µM | > 100 µM | 3.3 |
| CC(C)(CN)c1cc(-c2ccc(Cl)c(O)c2)c(-c2ccncc2)o1 [Compound 4] | 6.1 | > 50.1 µM | > 31.6 µM | 15 µM | 3.1 |
| COc1cccc(Nc2nc(-c3ccncc3)cc(N3CCN(C)CC3)n2)c1 [Compound 9] | 6.6 | > 50.1 µM | > 31.6 µM | > 100 µM | 3.6 |
| COc1ccc(CCNC(=O)CSc2ncnc3[nH]ncc23)cc1OC [Compound 8] | 5.3 | > 50.1 µM | > 31.6 µM | > 100 µM | 2.3 |
| CNS(=O)(=O)c1cccc(Nc2ccnc(Nc3cccc(S(=O)(=O)NC)c3)n2)c1 [Compound 6] | 6.4 | 2.5 µM | 0.0631 µM | 44.2 µM | 3.4 |
| NCCNCc1ccc(-c2cc3ccncc3cc2OC2CCNCC2)s1 [Compound 12] | 2.6 |  | 10 µM | 13.8 µM | -0.36 |
| O=C(c1cccc(OCc2cccnc2)c1)N1CCc2sccc2C1CN1CCCCC1 (centres unmarked) [Compound 14] | 6.9 | > 50.1 µM | > 31.6 µM | > 100 µM | 3.9 |
| Nc1ccc2c(-c3ccncc3)c(-c3ccc(Cl)c(O)c3)[nH]c2n1 [Compound 15] | 6.1 | 10 µM | 4 µM | 45.2 µM | 2.1 |
| CCn1cc(-c2ccncn2)c(-c2cccc(NS(=O)(=O)c3cc(F)ccc3F)c2)n1 [Compound 2] | 8.0 | > 50.1 µM | > 31.6 µM | > 100 µM | 4 |
| O=C(N[C@@H](CO)c1ccccc1)c1ccc2cncc(-c3cn[nH]c3)c2n1 [Compound 11] | 5.9 | 7.9 µM | 0.2 µM | 6.1 µM | 1.9 |
| COc1cc(CS(C)(=O)=O)ccc1Nc1nc(Nc2cc(F)ccc2C(N)=O)c2cc[nH]c2n1 [Compound 10] | 7.3 | > 50.1 µM | > 31.6 µM | > 100 µM | 3.3 |
| Nc1nc(Nc2cccc3cnccc23)nn1C(=O)C1CCCCC1 [Compound 16] | 7.6 | > 50.1 µM | 4 µM | 22.4 µM | 4.6 |
| CCn1c(-c2nonc2N)nc2c(-c3ccccc3)ncc(CN(C)C3CCN(C)CC3)c21 [Compound 5] | 7.7 | > 50.1 µM | 12.6 µM | 40.3 µM | 3.7 |
| COc1ccc(-c2c(-c3cccc(C(=O)N4CCN(C)CC4)c3)oc3ncnc(N)c23)cc1 [Compound 7] | 6.6 | 39.8 µM | 3.2 µM | > 100 µM | 2.6 |

— PMC6504873, “High-throughput screening of the Plasmodium falciparum cGMP-dependent protein kinase identified a thiazole scaffold which kills erythrocytic and sexual stage parasites” (Scientific Reports, 2019)
